Laboratory results published in PubChem BioAssay (NCI).
“And” between values parts separate entries of the source, which are not always exact repeats. Equal values may be shown once.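 Test compounds were applied to cells in 96-well plates for 48 hours at 5 doses. GI50 marks 50% less growth. TGI: total growth inhibition.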

Legend:
Assay in all cases: DTP human tumour cell line panel, 48 h
MALME-3M melanoma = tested on: MALME-3M melanoma
PC-3 prostate = tested on: PC-3 prostate
U251 CNS = tested on: U251 CNS
NCI/ADR-RES ovarian = tested on: NCI/ADR-RES ovarian
KM12 colon = tested on: KM12 colon
HCT-15 colon = tested on: HCT-15 colon
SR leukemia = tested on: SR leukemia
SK-MEL-5 melanoma = tested on: SK-MEL-5 melanoma
ACHN renal = tested on: ACHN renal
SK-MEL-28 melanoma = tested on: SK-MEL-28 melanoma
HCC-2998 colon = tested on: HCC-2998 colon
HCT-116 colon = tested on: HCT-116 colon
UACC-257 melanoma = tested on: UACC-257 melanoma
CAKI-1 renal = tested on: CAKI-1 renal

Structure (SMILES)	TGI (MALME-3M melanoma)	TGI (PC-3 prostate) [µM]	TGI (U251 CNS) [µM]	TGI (NCI/ADR-RES ovarian) [µM]	TGI (KM12 colon) [µM]	TGI (HCT-15 colon) [µM]	TGI (SR leukemia) [µM]	TGI (SK-MEL-5 melanoma)	TGI (ACHN renal) [µM]	TGI (SK-MEL-28 melanoma) [µM]	TGI (HCC-2998 colon) [µM]	TGI (HCT-116 colon) [µM]	TGI (UACC-257 melanoma) [µM]	TGI (CAKI-1 renal) [µM]	GI50 (MALME-3M melanoma)	GI50 (SK-MEL-5 melanoma)	GI50 (HCC-2998 colon)
COc1cc(NCc2ccc3nc(OC)c(OC)nc3c2)cc(OC)c1OC	> 100 µM	> 100	> 100	> 100	> 100	> 100	> 100	> 100 µM	> 100	> 100	> 100	> 100	> 100	> 100	–	–	–
CC(=O)OCC1OC(N2C(C)=C(C(C)=O)C(c3ccco3)C(C#N)=C2S)C(OC(C)=O)C(OC(C)=O)C1OC(C)=O (stereo not drawn)	> 100 µM	> 100	> 100	> 100	> 100	> 100	> 100	> 100 µM	> 100	> 100	> 100	> 100	> 100	> 100	–	–	–
CN(C)C(=O)Nc1cc2c3c(c1)CCCN3CCC2	> 10 µM	> 10	> 10	> 10	> 10	> 10	> 10	> 10 µM	> 10	> 10	> 10	> 10	> 10	> 10	–	–	–
CC1=NN(c2nc(N)nc(CSCc3nc(N)nc(N(C)C)n3)n2)C(C)(C)C1	–	> 100	> 100	> 100	> 100	> 100	> 100	> 100 µM	> 100	> 100	> 100	> 100	> 100	> 100	–	–	–
CCOC(=O)c1c(-c2ccc(O)c(OC)c2)c(C#N)c(=S)n(C2OC(COC(C)=O)C(OC(C)=O)C(OC(C)=O)C2OC(C)=O)c1-c1ccccc1 (stereo not drawn)	50.3 µM and > 100 µM	> 100	> 100	> 100	> 100	> 100	> 100	65.6 µM and > 100 µM	> 100	> 100	> 100	> 100	> 100	> 100	20.9 µM and 62.3 µM	21.9 µM and 47.2 µM	35 µM and 90.1 µM
O=C(O)c1ccc2c(c1)CC1(C2)Cc2ccccc2C1=O (stereo not drawn)	> 100 µM	> 100	> 100	> 100	> 100	> 100	> 100	> 100 µM	> 100	> 100	> 100	> 100	> 100	–	–	–	–
CCN(CC)C(=S)SNCc1ccc(S(N)(=O)=O)cc1	30.9 µM	26.1	15.8	41.8	29.2	58	> 64.6	36.2 µM	29.6	> 48.9	> 100	27.4	33.5	31.3	–	–	–
CC(=O)NC1C(O)C(O)C(CO)OC1n1ncc(=O)[nH]c1=O (stereo not drawn)	> 100 µM	> 100	> 100	> 100	> 100	> 100	> 100	> 100 µM	> 100	> 100	> 100	> 100	> 100	> 100	–	–	–
